In general, IC50 refers to the concentration that gives 50% inhibition.

The test system of this experiment is HIV-1 fusion. In words: cells. It counts as cell-based. Here is the method:
The gp160 induced cell-cell fusion assay uses a HeLa P4 cell line and a CHO-Tat10 cell line.
The HeLa P4 cell line expresses CCR5 and CD4 and has been transfected with HIV-1 LTR-β-Galactosidase. The media for this cell line is Dulbecco modified eagle's medium (D-MEM) (without L-glutamine) containing 10% foetal calf serum (FCS), 2 mM L-glutamine, penicillin/streptomycin (Pen/Strep; 100 U/mL penicillin+[…] streptomycin), and 1 μg/ml puromycin.
The CHO cell line is a Tat (transcriptional trans activator)-expressing clone from a CHO JRR17.1 cell line that has been transfected with pTat puro plasmid. The media for this cell line is rich medium for mammalian cell culture originally developed at Roswell Park Memorial Institute RPMI1640 (without L-glutamine) containing 10% FCS, 2 mM L-glutamine, 0.5 mg/ml Hygromycin B and 12 μg/ml puromycin. The CHO JRR17.1 line expresses gp160 (JRFL) and is a clone that has been selected for its ability to fuse with a CCR5/CD4 expressing cell line.
Upon cell fusion, Tat present in the CHO cell is able to transactivate the HIV-1 long terminal repeat (LTR) present in the HeLa cell leading to the expression of the β-Galactosidase enzyme. This expression is then measured using a Fluor Ace™ β-Galactosidase reporter assay kit (Bio-Rad cat no. 170-3150). This kit is a quantitative fluorescent assay that determines the level of expression of β-galactosidase using 4-methylumbelliferyl-galactopyranoside (MUG) as substrate. β-Galactosidase hydrolyses the fluorogenic substrate resulting in release of the fluorescent molecule 4-methylumbelliferone (4 MU). Fluorescence of 4-methylumbelliferone is then measured on a fluorometer using an excitation wavelength of 360 nm and emission wavelength of 460 nm.

The mark [1] stands for this setting: Human immunodeficiency virus 1, HeLaP4.
The mark [2] stands for this setting: HIV cell fusion assay, HeLa P4 (CCR5/CD4) and CHO-Tat10 (gp160 JRFL) cells, read-out: IC50.
The mark [3] stands for this setting: HIV cell fusion assay, unit μm printed under the cell, read-out: IC50.

Read-outs that look alike come from different tables or passages of the source.

On to `Cc1cccc(C)c1C(=O)N1CCC(N2CC[C@@H](N(Cc3cccc(Cl)c3)C(=O)C3CC3)C2)CC1` [Example 1, N-(3-chlorobenzyl)-N-{(3R)-1-[1-(2,6-dimethylbenzoyl)piperidin-4-yl]pyrrolidin-3-yl}cyclopropanecarboxamide], for which, under setting [1], the IC50 was determined as 0.14 nM.
With `Cc1cccc(C)c1C(=O)N1CCC(N2CC[C@@H](N(Cc3ccccc3F)C(=O)C3CC3)C2)CC1` [Example 3], the IC50 under setting [2] was 0.2 nM.
Regarding `COCC(=O)N(Cc1ccccc1)[C@@H]1CCN(C2CCN(C(=O)c3c(C)cccc3C)CC2)C1` [Example 4], the IC50 under setting [2] is 0.23 nM.
On the same count and under the same terms, in the case of `Cc1cccc(C)c1C(=O)N1CCC(N2CC[C@@H](N(Cc3ccccc3)C(=O)C3CCC3)C2)CC1` [Example 5] it was 0.27 nM.
For `Cc1cccc(C)c1C(=O)N1CCC(N2CC[C@@H](N(Cc3ccccc3)C(=O)CC(F)(F)F)C2)CC1` [Example 6], under setting [2], the IC50 was found to be 0.34 nM.
As for `Cc1cccc(C)c1C(=O)N1CCC(N2CC[C@@H](N(Cc3ccccc3)C(=O)C(C)C)C2)CC1` [Example 8], under setting [2], the IC50 turned out to be 0.63 nM.
Take `Cc1cccc(C)c1C(=O)N1CCC(N2CC[C@@H](N(Cc3cccc(F)c3)C(=O)C3CC3)C2)CC1` [Example 9]: the IC50 under setting [2] turned out to be 0.8 nM.
Take `Cc1cccc(C)c1C(=O)N1CCC(N2CC[C@@H](N(Cc3ccccc3)C(=O)C3CC3)C2)CC1` [Example 10]: the IC50 under setting [2] amounted to 1.99 nM.
Turning to `CC(=O)N(Cc1ccccc1)[C@@H]1CCN(C2CCN(C(=O)c3c(C)cccc3C)CC2)C1` [Example 11], the IC50 under setting [2] worked out at 3.05 nM.
On to `Cc1cccc(C)c1C(=O)N1CCC(N2CC[C@@H](N(Cc3ccccc3)C(=O)c3ccccc3)C2)CC1` [Example 12], for which the IC50 under setting [2] worked out at 4.06 nM.
The same measure, in the same setting: to `COCCC(=O)N(Cc1ccccc1)[C@@H]1CCN(C2CCN(C(=O)c3c(C)cccc3C)CC2)C1` [Example 13] belongs 4.83 nM; to `CC(=O)N(Cc1ccccc1F)[C@@H]1CCN(C2CCN(C(=O)c3c(C)cccc3C)CC2)C1` [Example 14], 13 nM.
Consider `Cc1cccc(C)c1C(=O)N1CCC(N2CC[C@@H](N(Cc3ccc(F)cc3)C(=O)C3CC3)C2)CC1` [Example 15], for which, under setting [2], the IC50 turned out to be 34.1 nM.
On the same count and under the same terms, to `Cc1cccc(C)c1C(=O)N1CCC(N2CC[C@@H](N(Cc3ccccn3)C(=O)C3CC3)C2)CC1` [Example 16] belongs 237 nM; to `Cc1ccccc1C(=O)N1CCC(N2CC[C@@H](N(Cc3ccccc3)C(=O)C3CC3)C2)CC1` [Example 17], 40.8 nM.
Still for that read-out and setting: in the case of `Cc1ccc(C(=O)N2CCC(N3CC[C@@H](N(Cc4ccccc4)C(=O)C4CC4)C3)CC2)c(C)c1` [Example 20] it was 221 nM.
For the molecule `Cc1ccnc(C)c1C(=O)N1CCC(N2CC[C@@H](N(Cc3ccccc3)C(=O)C3CC3)C2)CC1` [Example 21], the IC50 under setting [2] was found to be 0.82 nM.
Same read-out and setting: in the case of `Cc1ccnc(C)c1C(=O)N1CCC(N2CC[C@@H](N(Cc3ccccc3)C(=O)C3CC(F)(F)C3)C2)CC1` [Example 22] it was 1.21 nM; in that of `COCC(=O)N(Cc1cc(F)ccc1F)[C@@H]1CCN(C2CCN(C(=O)c3c(C)ccnc3C)CC2)C1` [Example 23], 1.42 nM; in that of `COCC(=O)N(Cc1ccccc1F)[C@@H]1CCN(C2CCN(C(=O)c3c(C)ccnc3C)CC2)C1` [Example 24], 119 nM.
On the same count and under the same terms, to `COCC(=O)N(Cc1cccc(F)c1)[C@@H]1CCN(C2CCN(C(=O)c3c(C)ccnc3C)CC2)C1` [Example 25] belongs 5.04 nM; to `COCC(=O)N(Cc1cccc(F)c1F)[C@@H]1CCN(C2CCN(C(=O)c3c(C)ccnc3C)CC2)C1` [Example 26], 6.51 nM.
Consider `Cc1ccnc(C)c1C(=O)N1CCC(N2CC[C@@H](N(Cc3ccccc3F)C(=O)C(C)C)C2)CC1` [Example 27], for which the IC50 under setting [2] was 8.8 nM.
On to `Cc1ccnc(C)c1C(=O)N1CCC(N2CC[C@@H](N(Cc3ccccc3F)C(=O)C3CC(F)(F)C3)C2)CC1` [Example 28], for which the IC50 under setting [2] was determined as 12.4 nM.
The same measure, in the same setting: to `CC(=O)N(Cc1ccccc1)[C@@H]1CCN(C2CCN(C(=O)c3c(C)ccnc3C)CC2)C1` [Example 29] belongs 14 nM; to `Cc1ccnc(C)c1C(=O)N1CCC(N2CC[C@@H](N(Cc3ccccc3)C(=O)C(C)C)C2)CC1` [Example 30], 18.9 nM; to `Cc1ccnc(C)c1C(=O)N1CCC(N2CC[C@@H](N(Cc3cccc(F)c3)C(=O)C3CC(F)(F)C3)C2)CC1` [Example 32], 34.7 nM.
Still for that read-out and setting: in the case of `Cc1ccnc(C)c1C(=O)N1CCC(N2CC[C@@H](N(Cc3cccc(F)c3)C(=O)C(C)C)C2)CC1` [Example 33] it was 42.2 nM; in that of `Cc1ncnc(C)c1C(=O)N1CCC(N2CC[C@@H](N(Cc3ccccc3)C(=O)C3CC(F)(F)C3)C2)CC1` [Example 34], 8.51 nM.
Regarding `Cc1ncnc(C)c1C(=O)N1CCC(N2CC[C@@H](N(Cc3ccccc3)C(=O)C3CC3)C2)CC1` [Example 35], the IC50 under setting [2] is 9.9 nM.
The same measure, in the same setting: in the case of `Cc1ncnc(C)c1C(=O)N1CCC(N2CC[C@@H](N(Cc3ccccc3)C(=O)OC(C)C)C2)CC1` [Example 36] it was 52 nM; in that of `Cc1ncnc(C)c1C(=O)N1CCC(N2CC[C@@H](N(Cc3ccccc3F)C(=O)C3CC(F)(F)C3)C2)CC1` [Example 37], 62.6 nM.
Same read-out and setting: to `CCOC(=O)N(Cc1ccccc1)[C@@H]1CCN(C2CCN(C(=O)c3c(C)ncnc3C)CC2)C1` [Example 38] belongs 135 nM; to `Cc1ncnc(C)c1C(=O)N1CCC(N2CC[C@@H](N(Cc3cccc(F)c3)C(=O)C3CC(F)(F)C3)C2)CC1` [Example 39], 227 nM; to `CCOc1ccccc1C(=O)N1CCC(N2CC[C@@H](N(Cc3ccccc3)C(=O)C3CCC3)C2)CC1` [Example 40], 120 nM.
The same measure, in the same setting: to `Cc1onc(-c2ccccc2)c1C(=O)N1CCC(N2CC[C@@H](N(Cc3ccccc3)C(=O)C3CC3)C2)CC1` [Example 41] belongs 0.41 nM.
As to `Cc1onc(C(C)C)c1C(=O)N1CCC(N2CC[C@@H](N(Cc3ccccc3)C(=O)C3CC3)C2)CC1` [Example 42], under setting [2], the half-inhibitory concentration (IC50) turned out to be 66.3 nM.
Take `CCc1cnn(C)c1C(=O)N1CCC(N2CC[C@@H](N(Cc3ccccc3)C(=O)C3CC3)C2)CC1` [Example 43]: the IC50 under setting [2] turned out to be 59.8 nM.
The same measure, in the same setting: in the case of `COCC(=O)N(Cc1ccccc1F)[C@@H]1CCN(C2CCN(C(=O)c3c(Cl)cccc3Cl)CC2)C1` [Example 44] it was 1.84 nM.
Same read-out and setting: in the case of `Cc1cccc(C(=O)N2CCC(N3CC[C@@H](N(Cc4ccccc4)C(=O)CC4CC4)C3)CC2)c1Cl` [Example 46] it was 107 nM.
With `O=C(c1c(F)cccc1Cl)N1CCC(N2CC[C@@H](N(Cc3ccccc3)C(=O)C3CC3)C2)CC1` [Example 49], the IC50 under setting [2] was 28.5 nM.
The same measure, in the same setting: in the case of `COCC(=O)N(Cc1ccccc1F)[C@@H]1CCN(C2CCN(C(=O)c3c(F)cccc3Cl)CC2)C1` [Example 50] it was 77.7 nM; in that of `O=C(c1c(F)cccc1Cl)N1CCC(N2CC[C@@H](N(Cc3ccccc3)C(=O)CC3CC3)C2)CC1` [Example 51], 100 nM; in that of `COc1cc(Cl)ccc1C(=O)N1CCC(N2CC[C@@H](N(Cc3ccccc3)C(=O)C3CC3)C2)CC1` [Example 53], 104 nM.
In the case of `Cc1cc[n+]([O-])c(C)c1C(=O)N1CCC(N2CC[C@@H](N(Cc3ccccc3)C(=O)C3CC3)C2)CC1` [Example 54], under setting [2], the IC50 was 34.3 nM.
Same read-out and setting: in the case of `COCC(=O)N(Cc1ccccc1)[C@@H]1CCN(C2CCN(C(=O)c3ccccc3C(F)(F)F)CC2)C1` [Example 55] it was 48.1 nM.
For the molecule `O=C(c1ccccc1)N1CCC(N2CC[C@@H](N(Cc3ccccc3)C(=O)C3CC3)C2)CC1` [Example 56], under setting [3], the IC50 is 1900 nM.
Still for that read-out and setting: in the case of `COc1ccc(C(=O)N2CCC(N3CC[C@@H](N(Cc4ccccc4)C(=O)CC4CC4)C3)CC2)cc1C` [Example 57] it was 6200 nM.
Consider `Cc1cccc(C)c1C(=O)N1CCC(N2CC[C@@H](N(Cc3ccccc3)S(C)(=O)=O)C2)CC1` [Example 58, N-benzyl-N-{(3R)-1-[1-(2,6-dimethylbenzoyl)piperidin-4-yl]pyrrolidin-3-yl}methanesulfonamide], for which the IC50 under setting [1] is 92.5 nM.
On the same count and under the same terms, to `CCCNC(=O)N(Cc1ccccc1F)[C@@H]1CCN(C2CCN(C(=O)c3c(C)cccc3C)CC2)C1` [Example 59, N-[(3R)-1-[1-(2,6-dimethylbenzoyl)piperidin-4-yl]pyrrolidin-3-yl]-N-(2-fluorobenzyl)-N′-propylurea] belongs 0.02 nM.
`Cc1ccnc(C)c1C(=O)N1CCC(N2CC[C@@H](N(Cc3ccccc3)C(=O)C3CC3)C2)[C@H](C)C1` (stereo partly drawn) [Example 60, N-benzyl-N-((3R)-1-{1-[(2,4-dimethylpyridin-3-yl)carbonyl]-3-methylpiperidin-4-yl}pyrrolidin-3-yl)cyclopropanecarboxamide] registered an IC50 under setting [1] of 4.46 nM.
Under setting [1], `Cc1cccc(C)c1C(=O)N1CCC(C)(N2CC[C@@H](N(Cc3ccccc3)C(=O)C3CC3)C2)CC1` [Example 61, N-benzyl-N-{(3R)-1-[1-(2,6-dimethylbenzoyl)-4-methylpiperidin-4-yl]pyrrolidin-3-yl}cyclopropanecarboxamide] came in with an IC50 of 0.23 nM.

Source of the values: US20090124636A1, “CHEMICAL COMPOUNDS” (priority 2006, published 2009).
